Tests used:
[1] = Hepatic events / ALT elevations in combined dataset of diabetes mellitus patients, before use of the risk identification tool; format: in vivo, human; settings: for Number of Patients ALT 3X to ≦ 5X ULN With TBL ≦ 2X ULN: diabetes patients; for Percent of Hepatic Events: of 24 events
Description: Analyses were conducted to identify potential risk factors for drug-induced liver toxicity in clinical studies of the monosuccinic acid ester of probucol (AGI-1067). AGI-1067 represents a new class of therapies targeting certain chronic diseases such as type II diabetes mellitus and atherosclerosis. AGI-1067 functions both as a direct antioxidant and an inducer of endogenous, antioxidant processes such as hemeoxygenase-1 and thioredoxin.
There were 36 patients who had peak elevations of ATL between 3× and ≦5× ULN in the combined dataset of diabetes mellitus patients. […] ALT levels therefore appear to have limited value in assessing potential for hepatotoxicity.
There were 24 diabetes patients in the combined dataset who had hepatic events as using a criteria of either ALT >5× ULN plus TBL <2× ULN or ALT >3× ULN plus TBL >2× ULN criteria. At randomization, 57% of the patients were in the AGI-1067 arm and 43% were in the placebo arm resulting in an AGI-1067 to placebo ratio of 1.3. Of the 24 hepatic events, 17 occurred in AGI-1067 treated patients and 7 occurred in placebo treated patients. […]

[2] = Large clinical study (more than 6000 pts, 2 year average exposure) in patients with pre-existing coronary artery disease; format: in vivo
[3] = Hepatic events in combined dataset of type 2 diabetes mellitus patients using the risk identification tool (exclusion by ApoA1 > ULN or ALT > 2X ULN); format: in vivo, human; settings: for Percent of Hepatic Events: of 14 events
Source text: As noted in Example 2, hepatic events in the sample populations were distributed 71% (17/24) for AGI-1067 treated patients and 29% (7/24) for patients receiving placebo resulting in an AGI-1067 to placebo ratio of 2.4.
There were 14 patients in the combined dataset who had hepatic events using the ALT >5× ULN plus TBL <2× ULN or ALT >3× ULN plus TBL >2× ULN criteria. As noted in Example 2, at randomization the ratio of AGI-1067 to placebo patients was 1.3, the same value as the randomization ratio for AGI-1067 compared to placebo.
When patients with elevated ApoA1 levels or ALT levels of greater than 2.0 times ULN were excluded, 10 hepatic events were eliminated. Of these, 90% were in the AGI-1067 treatment arm. Of the remaining 14 hepatic events, 8 were in AGI-1067 treated patients while 6 were in placebo treated patients. These hepatic events were distributed 57% (8/14) for AGI-1067 patients and 43% (6/14) for patients receiving placebo.
Table 4 summarizes the impact of the exclusionary criteria (primarily ApoA1 elevation) on the number, frequency distribution and ratio of hepatic events for the AGI-1067 and placebo groups in the 3270 type 2 diabetes mellitus patients contained in the datasets.
ALT >2× ULN could also be used as a secondary indicator for exclusion of patients.

[4] = in vivo; cited from earlier work
[5] = before use of the risk identification tool, 75 mg
[6] = before use of the risk identification tool, 150 mg
[7] = before use of the risk identification tool, 300 mg
[8] = before use of the risk identification tool, AGI-1067 all doses
[9] = using the risk identification tool, 75 mg
[10] = using the risk identification tool, 150 mg
[11] = using the risk identification tool, 300 mg
[12] = using the risk identification tool, AGI-1067 all doses

With `CC(C)(Sc1cc(C(C)(C)C)c(O)c(C(C)(C)C)c1)Sc1cc(C(C)(C)C)c(OC(=O)CCC(=O)O)c(C(C)(C)C)c1` [AGI-1067, monosuccinic acid ester of probucol] as the molecule, how does the “Number of Patients ALT 3X to ≦ 5X ULN With TBL ≦ 2X ULN” value (“Number of Patients ALT 3X” for short) ([1]; 75 mg) read?
Its value is 3.

What about the “Percent of ALT Elevations” value ([1]; 75 mg, share of 36 patients) of the same molecule?
Its value is 8%.

And the “Number of Patients ALT 3X” value ([1]; 150 mg)?
The value was 4.

What about the “Percent of ALT Elevations” value ([1]; 150 mg, share of 36 patients) of the same molecule?
The value was 11%.

What about the “Number of Patients ALT 3X” value ([1]; 300 mg) of the same molecule?
The value was 10.

What about the “Percent of ALT Elevations” value ([1]; 300 mg, share of 36 patients) of the same molecule?
The value was 28%.

What about the “Number of Patients ALT 3X” value ([1]; AGI-1067 all doses) of the same molecule?
Its value is 17.

And the “Percent of ALT Elevations” value ([1]; AGI-1067 all doses, share of 36 patients with ALT 3X to ≦5X ULN)?
The value was 47%.

And the “Ratio 1067/Placebo Hepatic Events” value ([1]; before use of the risk identification tool)?
Its value is 2.4.

What about the “Number of Hepatic Events ALT > 3X ULN Plus TBL > 2X ULN” value [1, 5] of the same molecule?
Its value is 0.

And the “Number of Hepatic Events ALT > 5X ULN With TBL ≦ 2X ULN” value [1, 5]?
Its value is 4.

What about the “Number of Hepatic Events Total” value [1, 5] of the same molecule?
The value was 4.

What about the “Percent of Hepatic Events” value [1, 5] of the same molecule?
The value was 17%.

And the “Number of Hepatic Events ALT > 3X ULN Plus TBL > 2X ULN” value [1, 6]?
Its value is 0.

What about the “Number of Hepatic Events ALT > 5X ULN With TBL ≦ 2X ULN” value [1, 6] of the same molecule?
The value was 2.

And the “Number of Hepatic Events Total” value [1, 6]?
Its value is 2.

What about the “Percent of Hepatic Events” value [1, 6] of the same molecule?
Its value is 8%.

What about the “Number of Hepatic Events ALT > 3X ULN Plus TBL > 2X ULN” value [1, 7] of the same molecule?
Its value is 4.

And the “Number of Hepatic Events ALT > 5X ULN With TBL ≦ 2X ULN” value [1, 7]?
The value was 7.

And the “Number of Hepatic Events Total” value [1, 7]?
The value was 11.

And the “Percent of Hepatic Events” value [1, 7]?
The value was 46%.

What about the “Number of Hepatic Events ALT > 3X ULN Plus TBL > 2X ULN” value [1, 8] of the same molecule?
Its value is 4.

What about the “Number of Hepatic Events ALT > 5X ULN With TBL ≦ 2X ULN” value [1, 8] of the same molecule?
The value was 13.

And the “Number of Hepatic Events Total” value [1, 8]?
Its value is 17.

And the “Percent of Hepatic Events” value [1, 8]?
The value was 71%.

And the “Incidence of ALT elevations 3X to ≦5X ULN versus placebo” value ([1]; diabetes mellitus patients)?
Its value is “comparable”.

And the “Number of patients demonstrating elevated ALT and bilirubin” value ([2]; of 3078 patients randomized to AGI-1067, four in the placebo arm)?
Its value is “eight”.

What about the HbA1c levels ([2]; subset of patients with type 2 diabetes mellitus) of the same molecule?
Its HbA1c levels is “lower HbA1c levels”.

What about the “Hard cardiovascular endpoints (composite of cardiovascular death, non-fatal MI and non-fatal stroke)” value ([2]; well-treated patients with pre-existing coronary artery disease) of the same molecule?
Its value is “reduce hard cardiovascular endpoints”.

And the “Incidence of hepatic events after application of the exclusionary criteria” value ([3]; 8/1851 patients)?
Its value is 0.4%.

What about the “Decrease (↓) of total number of hepatic events by using the risk identification tool” value ([3]; AGI-1067 all doses, versus before use of the tool) of the same molecule?
Its value is 53%.

And the “Excluded hepatic events relative to placebo patients using Baseline ApoA1 as predictive biomarker” value ([3]; Baseline ApoA1)?
Its value is “seven times more excluded hepatic events”.

And the “Number of Hepatic Events Excluded” value ([3]; Totals of all biomarkers)?
Its value is 9.

What about the “Number of Hepatic Events Excluded” value ([3]; biomarker Apo A1 > 165 mg/dl) of the same molecule?
The value was 7.

And the “Number of Hepatic Events Excluded” value ([3]; biomarker Baseline ALT > 2X ULN)?
The value was 1.

What about the “Number of Hepatic Events Excluded” value ([3]; biomarker Month 1 ALT > 2X ULN) of the same molecule?
The value was 1.

What about the “Share of the 10 eliminated hepatic events that were in the AGI-1067 treatment arm” value ([3]; exclusion of elevated ApoA1 or ALT > 2.0 times ULN) of the same molecule?
Its value is 90%.

What about the “Number of hepatic events versus placebo arm after excluding patients with ApoA1 above ULN (165 mg/dl) before drug” value ([3]; human, in vivo) of the same molecule?
Its value is “achieved parity”.

And the “Ratio 1067/Placebo Hepatic Events” value ([3]; using the risk identification tool)?
Its value is 1.3.

What about the “Number of Hepatic Events ALT > 3X ULN Plus TBL > 2X ULN” value [3, 9] of the same molecule?
Its value is 0.

What about the “Number of Hepatic Events ALT > 5X ULN With TBL ≦ 2X ULN” value [3, 9] of the same molecule?
The value was 2.

And the “Number of Hepatic Events Total” value [3, 9]?
The value was 2.

And the “Percent of Hepatic Events” value [3, 9]?
The value was 14%.

And the “Number of Hepatic Events ALT > 3X ULN Plus TBL > 2X ULN” value [3, 10]?
The value was 0.

And the “Number of Hepatic Events ALT > 5X ULN With TBL ≦ 2X ULN” value [3, 10]?
The value was 1.

And the “Number of Hepatic Events Total” value [3, 10]?
The value was 1.

What about the “Percent of Hepatic Events” value [3, 10] of the same molecule?
The value was 7%.

What about the “Number of Hepatic Events ALT > 3X ULN Plus TBL > 2X ULN” value [3, 11] of the same molecule?
The value was 2.

What about the “Number of Hepatic Events ALT > 5X ULN With TBL ≦ 2X ULN” value [3, 11] of the same molecule?
Its value is 3.

What about the “Number of Hepatic Events Total” value [3, 11] of the same molecule?
Its value is 5.

What about the “Percent of Hepatic Events” value [3, 11] of the same molecule?
Its value is 36%.

What about the “Number of Hepatic Events ALT > 3X ULN Plus TBL > 2X ULN” value [3, 12] of the same molecule?
The value was 2.

And the “Number of Hepatic Events ALT > 5X ULN With TBL ≦ 2X ULN” value [3, 12]?
The value was 6.

What about the “Number of Hepatic Events Total” value [3, 12] of the same molecule?
The value was 8.

What about the “Percent of Hepatic Events” value [3, 12] of the same molecule?
Its value is 57%.

For `NNC(=O)c1ccncc1` [isoniazid], which “Serious hepatotoxicity, share of recipients” value [4] is on record?
The value was “about 0.1%”.
